Measured values: US20060099284A1, “Composition containing an extract of fructus psoraleae for inhibiting anxiety and depression, improving memory and treating dementia” (priority 2004, published 2006)

System: male ICR mouse
Assay: Passive avoidance test: dementia treatment test (scopolamine)
Assay type: in vivo
Conditions: scopolamine 1 mg/kg intraperitoneally after training; test after 24 hours; FIG. 5B
Description: A passive avoidance test was carried out using a Gemini avoidance system (San Diego Instruments, USA) one hour after extracts (fraction T, fraction C, fraction CM, or fraction M) of Fructus Psoraleae were orally administered to a male ICR mouse (20 g) in a dose of 10 mg/kg. The test was modified on the basis of a method by Kumar, et al. and carried out as follows (Kumar, V., Singh, P. N., Muruganandan, A. V., Bhattacharya, Effect of Indian Hypericum perforatum Linn on animal models of cognitive dysfunction; J Ethnopharmacology 72, p 119-128, 2000).
On the first day of a training test, a mouse was put into the bright box to be acclimated for 300 seconds, prior to moving the mouse into a dark box by automatically opening a door. If the mouse moved into a dark box, it was electrically stimulated one second at 0.3 mA. As soon as a training session was finished, scopolamine was intraperitoneally administered in a dose of 1 mg/kg. At the test after 24 hours, the mouse was acclimated in the bright box for 300 seconds, prior to moving the mouse into the dark box by opening a door. The time to move into the dark box was measured at this time. […]

## CN1[C@@H]2C[C@@H](OC(=O)[C@H](CO)c3ccccc3)C[C@H]1[C@@H]1O[C@@H]12 [scopolamine]
  memory failure compared with a control group: 66.6%
